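Test compounds were applied to cells in 96-well plates for 48 hours at 5 doses. TGI: concentration producing complete growth inhibition.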
Assays:
Assay in all cases: NCI anticancer screen, dose series, 48 h
ACHN renal = system: ACHN renal
UO-31 renal = system: UO-31 renal
HOP-62 NSCLC = system: HOP-62 NSCLC
SK-MEL-2 melanoma = system: SK-MEL-2 melanoma
UACC-62 melanoma = system: UACC-62 melanoma
HCC-2998 colon = system: HCC-2998 colon
U251 CNS = system: U251 CNS
LOX IMVI melanoma = system: LOX IMVI melanoma
OVCAR-5 ovarian = system: OVCAR-5 ovarian
TK-10 renal = system: TK-10 renal
SF-295 CNS = system: SF-295 CNS
MCF7 breast = system: MCF7 breast
MOLT-4 leukemia = system: MOLT-4 leukemia
OVCAR-4 ovarian = system: OVCAR-4 ovarian
A498 renal = system: A498 renal
UACC-257 melanoma = system: UACC-257 melanoma
MDA-MB-435 = system: MDA-MB-435
CCRF-CEM leukemia = system: CCRF-CEM leukemia
SF-539 CNS = system: SF-539 CNS
NCI-H226 lung = system: NCI-H226 lung
DU-145 prostate = system: DU-145 prostate
SK-MEL-28 melanoma = system: SK-MEL-28 melanoma
COLO 205 colon = system: COLO 205 colon
786-0 renal = system: 786-0 renal
HCT-116 colon = system: HCT-116 colon
MDA-MB-231 breast = system: MDA-MB-231 breast
NCI-H522 lung = system: NCI-H522 lung
SF-268 CNS = system: SF-268 CNS
NCI/ADR-RES ovarian = system: NCI/ADR-RES ovarian
SNB-75 CNS = system: SNB-75 CNS
HCT-15 colon = system: HCT-15 colon
A549 NSCLC = system: A549 NSCLC
OVCAR-8 ovarian = system: OVCAR-8 ovarian
RXF 393 renal = system: RXF 393 renal
KM12 colon = system: KM12 colon
HOP-92 NSCLC = system: HOP-92 NSCLC
CAKI-1 renal = system: CAKI-1 renal
SR leukemia = system: SR leukemia
PC-3 prostate = system: PC-3 prostate
HT29 colon = system: HT29 colon
SN12C renal = system: SN12C renal
SK-MEL-5 melanoma = system: SK-MEL-5 melanoma
BT-549 breast = system: BT-549 breast
M14 melanoma = system: M14 melanoma
K-562 leukemia = system: K-562 leukemia
RPMI-8226 leukemia = system: RPMI-8226 leukemia
OVCAR-3 ovarian = system: OVCAR-3 ovarian
IGROV1 ovarian = system: IGROV1 ovarian
NCI-H460 lung = system: NCI-H460 lung
HL-60(TB) leukemia = system: HL-60(TB) leukemia
SK-OV-3 ovarian = system: SK-OV-3 ovarian
SW-620 colon = system: SW-620 colon
EKVX NSCLC = system: EKVX NSCLC
T-47D breast = system: T-47D breast
NCI-H23 lung = system: NCI-H23 lung

Measured: TGI

COc1ccc(-n2c(=O)c3[nH]cnc3n(-c3ccc(OC)cc3)c2=S)cc1
> 100 µM: all assays above
